From patent publication US20240043435A1, “TYK-2 INHIBITOR” (BEIGENE, LTD., priority 2020, published 2024)

Key:
[1] = biological target: T1, TYK2-JH2 (aa 575-869, in-house) protein (Homo sapiens, UniProt P29597); assay: TYK2-JH2 biochemical assay (HTRF probe displacement); type: binding; conditions: Biochemical assay; read-out: TYK2-JH2 IC50
T1 construct: TYK2-JH2 (aa 575-869, in-house) protein; made in house
Procedure, shortened: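 HTRF probe-displacement format: compound dilutions (10 points, 5-fold, from 500 uM in DMSO at 500×) were combined with 0.2 nM TYK2-JH2 protein for 0.5 h at room temperature in HEPES pH 7.5 buffer with MgCl2, BSA, DTT and Brij-35. Percent inhibition came from the 615/665 nm fluorescence ratio, fitted to a four-parameter logistic for IC50.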

[2] = system: JAK2, TYK2/p-STAT4 (Tyr693) activated by IL-12 in NK-92 cell line; assay: IL-12-JAK2, TYK2/p-STAT4 (Tyr693) inhibition IC50 cellular assay; type: cell-based; conditions: for Selectivity fold (TYK2/JAK2): Cellular assay, pSTAT5/GM-CSF IC50 vs pSTAT4/IL-12 IC50; for IC50: NK92, Cellular assay, read-out: pSTAT4/IL-12 IC50
Procedure, shortened: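 p-STAT4 (Tyr693) in lysates was measured by AlphaLISA SureFire Ultra after a 30 min IL-12 challenge (40 ng/ml final) at 37° C. Overnight-starved, IL-2-free NK-92 cells had been pretreated 1 h with compound at 10000 to 0.61 nM (4-fold, 8 points). IC50 values came from four-parameter logistic fitting.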

[3] = system: pSTAT5/GM-CSF; assay: pSTAT5/GM-CSF cellular assay (JAK2 selectivity); type: cell-based; conditions: for Selectivity fold (TYK2/JAK2): pSTAT5/GM-CSF IC50 over pSTAT4/IL-12 IC50

T1 sequence (P29597 575-869): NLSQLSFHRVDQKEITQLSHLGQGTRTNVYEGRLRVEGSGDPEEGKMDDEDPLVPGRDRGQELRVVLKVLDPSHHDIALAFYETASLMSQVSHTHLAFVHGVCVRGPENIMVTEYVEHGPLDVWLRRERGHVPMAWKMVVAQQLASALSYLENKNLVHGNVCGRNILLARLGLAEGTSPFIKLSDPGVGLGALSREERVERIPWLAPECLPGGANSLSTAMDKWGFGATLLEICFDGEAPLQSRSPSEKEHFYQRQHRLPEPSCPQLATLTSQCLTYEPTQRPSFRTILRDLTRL

| Compound | IC50 [1] [nM] | IC50 [2] [nM] | IC50 [3] [nM] | Selectivity fold (TYK2/JAK2) [2] [fold] | Selectivity fold (TYK2/JAK2) [3] [fold] |
| --- | --- | --- | --- | --- | --- |
| CC(=O)Nc1cc(Nc2cccc(S(C)(=O)=O)c2)c(-c2ccn(C)n2)cn1 [Example J6, N-(5-(1-methyl-1H-pyrazol-3-yl)-4-((3-(methylsulfonyl)phenyl)amino)pyridin-2-yl)acetamide] | 0.033 | 7.94 | > 10000 |  | >1259 |
| CC(=O)Nc1cc(Nc2cc(C#N)cc(S(C)(=O)=O)c2)c(-c2ccn(C)n2)cn1 [Example J7, N-(4-((3-cyano-5-(methylsulfonyl)phenyl)amino)-5-(1-methyl-1H-pyrazol-3-yl)pyridin-2-yl)acetamide] | 0.19 | 66.2 | > 10000 |  | >150 |
| CC(=O)Nc1cc(Nc2cc(C)cc(S(C)(=O)=O)c2)c(-c2ccn(C)n2)cn1 [Example J8, N-(5-(1-methyl-1H-pyrazol-3-yl)-4-((3-methyl-5-(methylsulfonyl)phenyl)amino)pyridin-2-yl)acetamide] | 0.073 | 7.67 | > 10000 |  | >1303 |
| COc1cc(Nc2cc(NC(C)=O)ncc2-c2ccn(C)n2)cc(S(C)(=O)=O)c1 [Example J9, N-(4-((3-methoxy-5-(methylsulfonyl)phenyl)amino)-5-(1-methyl-1H-pyrazol-3-yl)pyridin-2-yl)acetamide] | 0.083 | 6.54 | > 10000 |  | >1529 |
| CC(=O)Nc1cc(Nc2cc(OC(F)(F)F)cc(S(C)(=O)=O)c2)c(-c2ccn(C)n2)cn1 [Example J10, N-(5-(1-methyl-1H-pyrazol-3-yl)-4-((3-(methylsulfonyl)-5-(trifluoromethoxy)phe-nyl)amino)pyridin-2-yl)acetamide] | 0.05 | 6.34 | > 10000 |  | >1577 |
| COC(C)COc1cc(Nc2cc(NC(C)=O)ncc2-c2ccn(C)n2)nc(S(C)(=O)=O)c1 (stereo not drawn) [Example J13, N-(4-((4-(2-methoxypropoxy)-6-(methylsulfonyl)pyridin-2-yl)amino)-5-(1-methyl-1H-pyrazol-3-yl)pyridin-2-yl)acetamide] | 0.054 | 1.18 | > 10000 |  | >8474 |
| CO[C@H](C)COc1cc(Nc2cc(NC(C)=O)ncc2-c2ccn(C)n2)nc(S(C)(=O)=O)c1 [Example J14, (R)-N-(4-((4-(2-methoxypropoxy)-6-(methylsulfonyl)pyridin-2-yl)amino)-5-(1-methyl-1H-pyrazol-3-yl)pyridin-2-yl)acetamide] | 0.033 | 0.792 | > 10000 |  | >12626 |
| CC(=O)Nc1cc(Nc2cc(O[C@H]3C[C@H](O)C3)cc(S(C)(=O)=O)n2)c(-c2ccn(C)n2)cn1 [Example J16, N-(4-((4-((trans)-3-hydroxycyclobutoxy)-6-(methylsulfonyl)pyridin-2-yl)amino)-5-(1-methyl-1H-pyrazol-3-yl)pyridin-2-yl)acetamde] | 0.015 | 2.52 | > 10000 |  | >3968 |
| CC(=O)Nc1cc(Nc2cc(O[C@H]3C[C@@H](O)C3)cc(S(C)(=O)=O)n2)c(-c2ccn(C)n2)cn1 [Example J17, N-(4-((4-((cis)-3-hydroxycyclobutoxy)-6-(methylsulfonyl)pyridin-2-yl)amino)-5-(1-methyl-1H-pyrazol-3-yl)pyridin-2-yl)acetamide] | 0.043 | 6.8 | > 10000 |  | >1470 |

The next lines start with results.

| IC50 [1] [nM] | IC50 [2] [nM] | IC50 [3] [nM] | Compound | Selectivity fold (TYK2/JAK2) [2] [fold] | Selectivity fold (TYK2/JAK2) [3] [fold] |
| --- | --- | --- | --- | --- | --- |
| 0.028 | 3.17 | > 10000 | CC(=O)Nc1cc(Nc2cc(S(C)(=O)=O)ccc2C)c(-c2ccc(C(C)(C)O)cn2)cn1 [Example H35, N-(5-(2-hydroxypropan-2-yl)-4′-((2-methyl-5-(methylsulfonyl)phenyl)amino)-[2,3′-bipyridin]-6′-yl)acetamide] | >3154 |  |
| 0.022 | 1.95 | > 10000 | CCS(=O)(=O)c1cc(OC(C)C)cc(Nc2cc(NC(C)=O)ncc2-c2ccc(C(C)(C)O)cn2)n1 [Example H36, N-(4′-((6-(ethylsulfonyl)-4-isopropoxypyridin-2-yl)amino)-5-(2-hydroxypropan-2-yl)-[2,3′-bipyridin]-6′-yl)acetamide] | >5128 |  |
| 0.022 | 3 | > 10000 | CC(=O)Nc1cc(Nc2cc(OC(C)C)cc(S(C)(=O)=O)n2)c(-c2ccn(C)n2)cn1 [Example J2, N-(4-((4-isopropoxy-6-(methylsulfonyl)pyridin-2-yl)amino)-5-(1-methyl-1H-pyrazol-3-yl)pyridin-2-yl)acetamide] |  | >3333 |
| 0.026 | 0.286 | > 10000 | CC(=O)Nc1cc(Nc2cc(OCC3CC3)cc(S(C)(=O)=O)n2)c(-c2ccn(C)n2)cn1 [Example J3, N-(4-((4-(cyclopropylmethoxy)-6-(methylsulfonyl)pyridin-2-yl)amino)-5-(1-methyl-1H-pyrazol-3-yl)pyridin-2-yl)acetamide] |  | >34965 |
| 0.028 | 4.94 | > 10000 | CC(=O)Nc1cc(Nc2cccc(S(N)(=O)=O)n2)c(-c2ccn(C)n2)cn1 [Example J4, N-(5-(1-methyl-1H-pyrazol-3-yl)-4-((6-sulfamoylpyridin-2-yl)amino)pyridin-2-yl)acetamide] |  | >2024 |
| 0.022 | 2.05 | > 10000 | CCS(=O)(=O)c1cccc(Nc2cc(NC(C)=O)ncc2-c2ccn(C)n2)n1 [Example J5, N-(4-((6-(ethylsulfonyl)pyridin-2-yl)amino)-5-(1-methyl-1H-pyrazol-3-yl)pyridin-2-yl)acetamide] |  | >4878 |
| 0.017 | 0.275 | 6420 | CC(=O)Nc1cc(Nc2cccc(S(C)(=O)=O)n2)c(-c2ccn(C)n2)cn1 [Example J11, N-(5-(1-methyl-1H-pyrazol-3-yl)-4-((6-(methylsulfonyl)pyridin-2-yl)amino)pyridin-2-yl)actamide] |  | 23327 |
| 0.017 | 0.847 | > 10000 | COCCOc1cc(Nc2cc(NC(C)=O)ncc2-c2ccn(C)n2)nc(S(C)(=O)=O)c1 [Example J12, N-(4-((4-(2-methoxyethoxy)-6-(methylsulfonyl)pyridin-2-yl)amino)-5-(1-methyl-1H-pyrazol-3-yl)pyridin-2-yl)acetamide] |  | >11806 |
| 0.016 | 5.9 | > 10000 | CC(=O)Nc1cc(Nc2cc(OCCO)cc(S(C)(=O)=O)n2)c(-c2ccn(C)n2)cn1 [Example J15, N-(4-((4-(2-hydroxyethoxy)-6-(methylsulfonyl)pyridin-2-yl)amino)-5-(1-methyl-1H-pyrazol-3-yl)pyridin-2-yl)acetamide] |  | >1694 |
